In the data set the target is ATP-dependent translocase ABCB1 (Homo sapiens, UniProt P08183). In words: TP_TRANSPORTER: increase in mitoxantrone intracellular accumulation (Mitoxantrone: 3 uM, VX-710: 2.5 uM) in A2780/Dx5b cells. Format: functional, cell-based.

Drawing on ChEMBL document CHEMBL2074240, “VX-710 (biricodar) increases drug retention and enhances chemosensitivity in resistant cells overexpressing P-glycoprotein, multidrug resistance protein, and breast cancer resistance protein” (Clin Cancer Res, 2004), this text covers Activity for one compound.

Each structure is given as a SMILES string.

Sequence of ATP-dependent translocase ABCB1 (P08183 whole entry): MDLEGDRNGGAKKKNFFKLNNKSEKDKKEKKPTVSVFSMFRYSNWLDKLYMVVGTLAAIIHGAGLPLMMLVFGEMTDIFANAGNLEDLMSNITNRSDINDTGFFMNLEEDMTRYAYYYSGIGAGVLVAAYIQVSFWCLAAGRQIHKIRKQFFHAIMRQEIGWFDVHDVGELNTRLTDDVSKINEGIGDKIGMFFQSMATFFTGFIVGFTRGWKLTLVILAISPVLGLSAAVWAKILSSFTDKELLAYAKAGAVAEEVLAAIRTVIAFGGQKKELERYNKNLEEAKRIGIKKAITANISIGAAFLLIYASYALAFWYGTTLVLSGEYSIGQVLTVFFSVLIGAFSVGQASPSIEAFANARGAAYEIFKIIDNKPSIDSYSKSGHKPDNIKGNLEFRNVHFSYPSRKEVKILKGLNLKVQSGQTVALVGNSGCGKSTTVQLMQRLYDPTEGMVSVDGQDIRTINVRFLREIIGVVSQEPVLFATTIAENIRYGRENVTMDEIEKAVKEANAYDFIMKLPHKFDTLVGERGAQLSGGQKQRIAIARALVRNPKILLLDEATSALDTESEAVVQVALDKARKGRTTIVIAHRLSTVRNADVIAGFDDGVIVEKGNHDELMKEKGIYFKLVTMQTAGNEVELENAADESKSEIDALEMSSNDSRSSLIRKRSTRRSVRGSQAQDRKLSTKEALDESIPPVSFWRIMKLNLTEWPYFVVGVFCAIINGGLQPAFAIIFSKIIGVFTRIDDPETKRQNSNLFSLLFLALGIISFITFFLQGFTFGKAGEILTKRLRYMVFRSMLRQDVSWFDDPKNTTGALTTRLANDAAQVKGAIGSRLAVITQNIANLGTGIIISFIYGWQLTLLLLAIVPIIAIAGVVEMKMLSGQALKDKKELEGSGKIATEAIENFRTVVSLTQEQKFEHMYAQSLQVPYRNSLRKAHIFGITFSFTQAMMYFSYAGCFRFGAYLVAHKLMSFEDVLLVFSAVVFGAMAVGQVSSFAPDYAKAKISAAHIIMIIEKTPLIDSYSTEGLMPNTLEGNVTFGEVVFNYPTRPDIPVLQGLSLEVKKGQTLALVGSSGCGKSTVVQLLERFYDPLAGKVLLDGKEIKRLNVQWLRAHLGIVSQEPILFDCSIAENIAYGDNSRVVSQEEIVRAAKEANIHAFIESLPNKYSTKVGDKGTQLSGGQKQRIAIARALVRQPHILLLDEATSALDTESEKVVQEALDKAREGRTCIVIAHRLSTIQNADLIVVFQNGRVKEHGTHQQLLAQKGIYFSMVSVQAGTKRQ

As for `COc1cc(C(=O)C(=O)N2CCCC[C@H]2C(=O)OC(CCCc2cccnc2)CCCc2cccnc2)cc(OC)c1OC` [BIRICODAR], the Activity entry was “inhibitor [+]”.
